Values quoted from earlier work, collected in patent US6486152B1, “Topical carbamazepine formulations and methods of use” (Taro Pharmaceutical Industries Ltd., priority 1997, dated 2002).

Assays:
psoriatic erythroderma = conditions: HIV positive patient

NC(=O)N1c2ccccc2C=Cc2ccccc21 [Carbamazepine, 5-carbamoyl-5H-dibenz[b,f]azepine]
psoriatic erythroderma condition during first intake (psoriatic erythroderma; accidentally ingested 200-400 mg/day for two weeks): exhibited improvement | psoriatic erythroderma condition after stopping the medication (psoriatic erythroderma; after they stopped taking the medication): flared up again | psoriatic erythroderma condition on second intake (psoriatic erythroderma; intentionally took the medication a second time): improved once again | mood (psoriatic erythroderma; systemic (ingested) carbamazepine): affected | solubility in acetone (acetone): soluble | solubility in alcohols (alcohols): soluble | solubility in propylene glycol (propylene glycol): soluble | solubility in water (water): practically insoluble
